{"source": "patent US20230114728A1", "about": "(Venatorx Pharmaceuticals, Inc., priority 2019, published 2023)", "key": {"E. coli K12 PBP3": {"molecular_target": "T1, E. coli K12 PBP3 (Escherichia coli, UniProt P0AD68)", "T1 construct": "made in house", "T1 sequence (P0AD68 1-577)": "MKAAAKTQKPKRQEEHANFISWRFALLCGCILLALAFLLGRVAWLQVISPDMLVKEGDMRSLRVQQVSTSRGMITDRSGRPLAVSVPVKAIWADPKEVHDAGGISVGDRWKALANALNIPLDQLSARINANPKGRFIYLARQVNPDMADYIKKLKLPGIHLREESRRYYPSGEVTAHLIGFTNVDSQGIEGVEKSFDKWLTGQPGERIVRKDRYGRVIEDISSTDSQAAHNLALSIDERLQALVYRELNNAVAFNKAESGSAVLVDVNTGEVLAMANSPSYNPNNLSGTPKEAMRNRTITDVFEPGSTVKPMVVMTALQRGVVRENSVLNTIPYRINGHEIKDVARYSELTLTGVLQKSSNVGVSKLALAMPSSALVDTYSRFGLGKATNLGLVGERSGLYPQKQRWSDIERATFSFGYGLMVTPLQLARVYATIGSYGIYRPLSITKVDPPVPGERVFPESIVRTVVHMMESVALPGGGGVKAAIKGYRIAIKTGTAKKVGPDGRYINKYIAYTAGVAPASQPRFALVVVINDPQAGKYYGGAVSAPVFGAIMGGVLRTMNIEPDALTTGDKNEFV", "assay": "biochemical", "format": "binding", "in_short": "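Fluorescence polarization (ex 490/em 520 nm) competition of inhibitors against Bocillin-FL at 0.1 μM, read up to 60 min. Final PBP levels: E. coli PBP3 1.5 μM; A. baumannii PBP2 2.5 μM, PBP3 0.2 μM in Tris pH 8.0/NaCl/glycerol/Tween 20; N. gonorrhoeae PBP2 […] in Hepes pH 8.0/NaCl/glycerol. EC50 = concentration halving PBP-bound Bocillin-FL.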"}, "N. gonorrhoeae WHO L": {"system": "N. gonorrhoeae WHO L", "assay": "Liquid broth MIC in Fastidious broth", "format": "cell-based", "conditions": "Neisseria gonorrhoeae; N. gonorrhoeae strain WHO L; Fastidious broth; read-out: Minimum Inhibitory Concentration, N. gonorrhoeae WHO L", "in_short": "(§1)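 Colonies were swabbed from chocolate agar after 24 h growth and standardised by optical density at 600 nm. Compounds were serially diluted twofold in Fastidious broth, and bacteria added to give 5×10^5 CFU/mL. After about 24 h at 36 °C in 5% CO2, the lowest concentration allowing under 10% growth was taken as MIC.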"}, "[1]": {"system": "N. gonorrhoeae ATCC 49226", "assay": "Liquid broth MIC in Fastidious broth", "format": "cell-based", "conditions": "Neisseria gonorrhoeae, ATCC49226; N. gonorrhoeae strain ATCC 49226; Fastidious broth; read-out: Minimum Inhibitory Concentration, N. gonorrhoeae ATCC 49226", "in_short": "as §1"}, "N. gonorrhoeae WHO K": {"system": "N. gonorrhoeae WHO K", "assay": "Liquid broth MIC in Fastidious broth", "format": "cell-based", "conditions": "Neisseria gonorrhoeae, read-out: Minimum Inhibitory Concentration, N. gonorrhoeae WHO K", "in_short": "(§2)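 Mosaic PBP2 producers; colonies from 24 h chocolate agar, saline suspension, OD600. Fastidious broth, 2-fold dilutions, 5×10^5 CFU/mL. ~24 h, 36 °C, 5% CO2; visual MIC, <10% growth cutoff.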"}, "N. gonorrhoeae WHO Q": {"system": "N. gonorrhoeae WHO Q", "assay": "Liquid broth MIC in Fastidious broth", "format": "cell-based", "conditions": "Neisseria gonorrhoeae, read-out: Minimum Inhibitory Concentration, N. gonorrhoeae WHO Q", "in_short": "as §2"}, "N. gonorrhoeae FA1090": {"system": "N. gonorrhoeae FA1090", "assay": "Liquid broth MIC in Fastidious broth", "format": "cell-based", "conditions": "Neisseria gonorrhoeae; N. gonorrhoeae strain FA1090; Fastidious broth; read-out: Minimum Inhibitory Concentration, N. gonorrhoeae FA1090", "in_short": "as §1"}, "N. gonorrhoeae WHO Z": {"system": "N. gonorrhoeae WHO Z", "assay": "Liquid broth MIC in Fastidious broth", "format": "cell-based", "conditions": "Neisseria gonorrhoeae, read-out: Minimum Inhibitory Concentration, N. gonorrhoeae WHO Z", "in_short": "as §2"}, "N. gonorrhoeae WHO G": {"system": "N. gonorrhoeae WHO G", "assay": "Liquid broth MIC in Fastidious broth", "format": "cell-based", "conditions": "Neisseria gonorrhoeae; N. gonorrhoeae strain WHO G; Fastidious broth; read-out: Minimum Inhibitory Concentration, N. gonorrhoeae WHO G", "in_short": "as §1"}, "P. aeruginosa PBP3": {"molecular_target": "T2, P. aeruginosa PBP3 (Pseudomonas aeruginosa, UniProt G3XD46)", "T2 construct": "made in house", "T2 sequence (G3XD46 whole entry)": "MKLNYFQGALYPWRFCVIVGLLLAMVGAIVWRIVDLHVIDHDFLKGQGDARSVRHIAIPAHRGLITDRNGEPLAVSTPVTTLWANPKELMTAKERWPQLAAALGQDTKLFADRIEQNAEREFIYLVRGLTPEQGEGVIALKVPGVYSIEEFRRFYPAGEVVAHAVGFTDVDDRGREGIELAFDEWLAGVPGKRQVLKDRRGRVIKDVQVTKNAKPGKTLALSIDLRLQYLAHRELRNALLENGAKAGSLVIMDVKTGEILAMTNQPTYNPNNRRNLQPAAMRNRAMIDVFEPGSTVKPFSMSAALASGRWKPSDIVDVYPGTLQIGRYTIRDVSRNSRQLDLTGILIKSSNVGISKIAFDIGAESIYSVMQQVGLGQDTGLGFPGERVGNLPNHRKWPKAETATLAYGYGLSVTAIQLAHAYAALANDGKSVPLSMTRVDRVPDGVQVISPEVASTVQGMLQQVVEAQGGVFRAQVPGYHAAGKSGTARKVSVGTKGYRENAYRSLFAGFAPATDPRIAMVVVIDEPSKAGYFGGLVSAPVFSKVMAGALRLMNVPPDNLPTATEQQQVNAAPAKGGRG", "assay": "Bocillin-FL fluorescence polarization competition binding assay, P. aeruginosa PBP3", "conditions": "fluorescence polarization competition binding assay using Bocillin-FL", "in_short": "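Binding of boronic acid inhibitors to purified Pseudomonas aeruginosa (PA01) PBP3 was measured by fluorescence polarization competition with Bocillin-FL, a fluorescent penicillin V. Reactions of 80 μl contained 0.75 μM PBP3 and 0.1 μM Bocillin-FL in 50 mM Hepes (pH 8.0), 300 mM NaCl and 5% (v/v) glycerol, in black 384-well plates. FP (Excitation 490 nm, Emission 520 nm) was read for up to 60 minutes. EC50 is the concentration that halves PBP-bound Bocillin-FL.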"}}, "data": [{"smiles": "NC1(CN2CCN(C(=O)NC(C(=O)N[C@H]3Cc4cccc(C(=O)O)c4OB3O)c3cccc(NS(N)(=O)=O)c3)C(=O)C2=O)CC1", "note": "(stereo partly drawn) [Example 120, (3R)-3-(2-(4-((1-aminocyclopropyl)methyl)-2,3-dioxopiperazine-1-carboxamido)-2-(3-(sulfamoylamino)phenyl)acetamido)-2-hydroxy-3,4-dihydro-2H-benzo[e][1,2]oxaborinine-8-carboxylic acid]", "values": [{"measurement": "EC50", "setting": "E. coli K12 PBP3", "value": "30 to 500", "unit": "µM"}, {"measurement": "MIC", "setting": "N. gonorrhoeae WHO L", "value": "> 64", "unit": "µg/mL"}, {"measurement": "MIC", "setting": "[1]", "value": "> 64", "unit": "µg/mL"}, {"measurement": "MIC", "setting": "N. gonorrhoeae WHO K", "value": "> 64", "unit": "µg/mL"}, {"measurement": "MIC", "setting": "N. gonorrhoeae WHO Q", "value": "> 64", "unit": "µg/mL"}, {"measurement": "MIC", "setting": "N. gonorrhoeae FA1090", "value": "4 to 8", "unit": "µg/mL"}, {"measurement": "MIC", "setting": "N. gonorrhoeae WHO Z", "value": "> 64", "unit": "µg/mL"}, {"measurement": "MIC", "setting": "N. gonorrhoeae WHO G", "value": "> 64", "unit": "µg/mL"}, {"measurement": "P. aeruginosa PBP3 Potency", "setting": "P. aeruginosa PBP3", "value": "D (D represents a potency <10 μM)"}]}, {"smiles": "NS(=O)(=O)c1cccc(C(NC(=O)N2CCN(CCF)C(=O)C2=O)C(=O)N[C@H]2Cc3cccc(C(=O)O)c3OB2O)c1", "note": "(stereo partly drawn) [Example 100, (3R)-3-(2-(4-(2-fluoroethyl)-2,3-dioxopiperazine-1-carboxamido)-2-(3-sulfamoylphenyl)acetamido)-2-hydroxy-3,4-dihydro-2H-benzo[e][1,2]oxaborinine-8-carboxylic acid]", "values": [{"measurement": "EC50", "setting": "E. coli K12 PBP3", "value": "30 to 500", "unit": "µM"}, {"measurement": "MIC", "setting": "N. gonorrhoeae WHO L", "value": "> 64", "unit": "µg/mL"}, {"measurement": "MIC", "setting": "[1]", "value": "16 to 32", "unit": "µg/mL"}, {"measurement": "MIC", "setting": "N. gonorrhoeae WHO K", "value": "16 to 32", "unit": "µg/mL"}, {"measurement": "MIC", "setting": "N. gonorrhoeae WHO Q", "value": "16 to 32", "unit": "µg/mL"}, {"measurement": "MIC", "setting": "N. gonorrhoeae FA1090", "value": "0.25 to 0.5", "unit": "µg/mL"}, {"measurement": "MIC", "setting": "N. gonorrhoeae WHO Z", "value": "16 to 32", "unit": "µg/mL"}, {"measurement": "MIC", "setting": "N. gonorrhoeae WHO G", "value": "1 to 2", "unit": "µg/mL"}, {"measurement": "P. aeruginosa PBP3 Potency", "setting": "P. aeruginosa PBP3", "value": "D (D represents a potency <10 μM)"}]}, {"smiles": "NCCN1CCN(C(=O)N[C@H](C(=O)N[C@H]2Cc3ccc(F)c(C(=O)O)c3OB2O)c2c(F)cc(O)cc2F)C(=O)C1=O", "note": "(single isomer, unassigned) [Example 128]", "values": [{"measurement": "EC50", "setting": "E. coli K12 PBP3", "value": "30 to 500", "unit": "µM"}, {"measurement": "MIC", "setting": "N. gonorrhoeae WHO L", "value": "> 64", "unit": "µg/mL"}, {"measurement": "MIC", "setting": "[1]", "value": "> 64", "unit": "µg/mL"}, {"measurement": "MIC", "setting": "N. gonorrhoeae WHO K", "value": "> 64", "unit": "µg/mL"}, {"measurement": "MIC", "setting": "N. gonorrhoeae WHO Q", "value": "> 64", "unit": "µg/mL"}, {"measurement": "MIC", "setting": "N. gonorrhoeae FA1090", "value": "16 to 32", "unit": "µg/mL"}, {"measurement": "MIC", "setting": "N. gonorrhoeae WHO Z", "value": "> 64", "unit": "µg/mL"}, {"measurement": "MIC", "setting": "N. gonorrhoeae WHO G", "value": "> 64", "unit": "µg/mL"}, {"measurement": "P. aeruginosa PBP3 Potency", "setting": "P. aeruginosa PBP3", "value": "C (C represents a potency between 10 and 30 μM)"}]}, {"smiles": "CCN1CCN(C(=O)NC(C(=O)N[C@H]2Cc3cccc(C(=O)O)c3OB2O)c2c(F)cc(O)cc2F)C(=O)C1=O", "note": "(stereo partly drawn) [Example 105, (3R)-3-(2-(2,6-difluoro-4-hydroxyphenyl)-2-(4-ethyl-2,3-dioxopiperazine-1-carboxamido)acetamido)-2-hydroxy-3,4-dihydro-2H-benzo[e][1,2]oxaborinine-8-carboxylic acid]", "values": [{"measurement": "EC50", "setting": "E. coli K12 PBP3", "value": "< 30", "unit": "µM"}, {"measurement": "MIC", "setting": "N. gonorrhoeae WHO L", "value": "16 to 32", "unit": "µg/mL"}, {"measurement": "MIC", "setting": "[1]", "value": "4 to 8", "unit": "µg/mL"}, {"measurement": "MIC", "setting": "N. gonorrhoeae WHO K", "value": "16 to 32", "unit": "µg/mL"}, {"measurement": "MIC", "setting": "N. gonorrhoeae WHO Q", "value": "4 to 8", "unit": "µg/mL"}, {"measurement": "MIC", "setting": "N. gonorrhoeae FA1090", "value": "< 0.125", "unit": "µg/mL"}, {"measurement": "MIC", "setting": "N. gonorrhoeae WHO Z", "value": "4 to 8", "unit": "µg/mL"}, {"measurement": "MIC", "setting": "N. gonorrhoeae WHO G", "value": "0.25 to 0.5", "unit": "µg/mL"}, {"measurement": "P. aeruginosa PBP3 Potency", "setting": "P. aeruginosa PBP3", "value": "D (D represents a potency <10 μM)"}]}, {"smiles": "CCN1CCN(C(=O)NC(C(=O)N[C@H]2Cc3ccc(F)c(C(=O)O)c3OB2O)c2c(F)cc(O)cc2F)C(=O)C1=O", "note": "(stereo partly drawn) [Example 130, (3R)-3-(2-(2,6-difluoro-4-hydroxyphenyl)-2-(4-ethyl-2,3-dioxopiperazine-1-carboxamido)acetamido)-7-fluoro-2-hydroxy-3,4-dihydro-2H-benzo[e][1,2]oxaborinine-8-carboxylic acid]", "values": [{"measurement": "EC50", "setting": "E. coli K12 PBP3", "value": "< 30", "unit": "µM"}, {"measurement": "MIC", "setting": "N. gonorrhoeae WHO L", "value": "> 64", "unit": "µg/mL"}, {"measurement": "MIC", "setting": "[1]", "value": "4 to 8", "unit": "µg/mL"}, {"measurement": "MIC", "setting": "N. gonorrhoeae WHO K", "value": "16 to 32", "unit": "µg/mL"}, {"measurement": "MIC", "setting": "N. gonorrhoeae WHO Q", "value": "16 to 32", "unit": "µg/mL"}, {"measurement": "MIC", "setting": "N. gonorrhoeae FA1090", "value": "1 to 2", "unit": "µg/mL"}, {"measurement": "MIC", "setting": "N. gonorrhoeae WHO Z", "value": "4 to 8", "unit": "µg/mL"}, {"measurement": "MIC", "setting": "N. gonorrhoeae WHO G", "value": "4 to 8", "unit": "µg/mL"}, {"measurement": "P. aeruginosa PBP3 Potency", "setting": "P. aeruginosa PBP3", "value": "D (D represents a potency <10 μM)"}]}, {"smiles": "CCN1CCN(C(=O)NC(C(=O)N[C@H]2Cc3cccc(C(=O)O)c3OB2O)c2cc(Cl)c(C(=O)O)cc2F)C(=O)C1=O", "note": "(stereo partly drawn) [Example 138, (3R)-3-(2-(4-carboxy-5-chloro-2-fluorophenyl)-2-(4-ethyl-2,3-dioxopiperazine-1-carboxamido)acetamido)-2-hydroxy-3,4-dihydro-2H-benzo[e][1,2]oxaborinine-8-carboxylic acid]", "values": [{"measurement": "EC50", "setting": "E. coli K12 PBP3", "value": "< 30", "unit": "µM"}, {"measurement": "MIC", "setting": "N. gonorrhoeae WHO L", "value": "16 to 32", "unit": "µg/mL"}, {"measurement": "MIC", "setting": "[1]", "value": "4 to 8", "unit": "µg/mL"}, {"measurement": "MIC", "setting": "N. gonorrhoeae WHO K", "value": "16 to 32", "unit": "µg/mL"}, {"measurement": "MIC", "setting": "N. gonorrhoeae WHO Q", "value": "4 to 8", "unit": "µg/mL"}, {"measurement": "MIC", "setting": "N. gonorrhoeae FA1090", "value": "< 0.125", "unit": "µg/mL"}, {"measurement": "MIC", "setting": "N. gonorrhoeae WHO Z", "value": "4 to 8", "unit": "µg/mL"}, {"measurement": "MIC", "setting": "N. gonorrhoeae WHO G", "value": "1 to 2", "unit": "µg/mL"}, {"measurement": "P. aeruginosa PBP3 Potency", "setting": "P. aeruginosa PBP3", "value": "D (D represents a potency <10 μM)"}]}]}
